Where two headings read alike, the source gives them in different places.
Columns and labels:
[1] = tested on: Enterobacter cloacae (ATCC 13047); experiment: Bacterial proliferation assay, E. cloacae; type: cell-based
Description: (§1) Bacterial Strains: Enterococcus faecium—(Orla-Jensen) Schleifer and Kilpper-Balz strain NCTC 7171 (ATCC 19434); Drug sensitive Staphylococcus aureus—Rosenbranch strain Seattle 1945 (ATCC 25923); Methicillin resistant S. aureus (MRSA)—Rosenbach strain HPV107 (ATCC BAA-44); Klebsiella Pneumonia—(Schroeter) Trevisan strain NCTC 9633 (ATCC 13883); Acinetobacter baumannii—Bouvet and Grimont strain 2208 (ATCC 19606); Pseudomonas aeruginosa—(Schroeter) Migula strain NCTC 10332 (ATCC 10145); Enterobacter cloacae—E. cloacae, subsp. cloacae (Jordan) Hormaeche and Edwards strain CDC 442-68 (ATCC 13047).
(§2) Growth Media: All bacteria were grown in Brain Heart Infusion (BHI) broth/agar (Becton, Dickinson and Company). All liquid cultures were grown in BHI media supplemented with 25 mg/L Ca^2+ and 12.5 mg/L Mg^2+ to mimic free physiological concentrations of these cations. A 10 mg/mL Ca^2+ stock solution was prepared by dissolving 3.68 g of CaCl2.2H2O in 100 mL of deionized water, and a 10 mg/mL Mg^2+ stock solution was prepared by dissolving 8.36 g of MgCl2.6H2O in 100 mL deionized water. Both stock solutions were filter-sterilized using 0.2 μm pore size cellulose-acetate filters. 2.5 mL of the sterile 10 mg/mL Ca^2+ stock and 1.25 mL of the sterile 10 mg/mL Mg^2+ stock solutions were added per 1 L of autoclaved BHI medium to obtain 25 mg/L Ca^2+ and 12.5 mg/L Mg^2+ ions, respectively.
(§3) General Assay Protocol: Stock bacterial cultures were streaked onto BHI agar plates and grown overnight at 37° C. Fresh aliquots of broth were inoculated with single bacterial colonies and the cultures were grown overnight at 37° C. with shaking (240 rpm) in cation adjusted BHI media. The following morning, the overnight cultures were sub-cultured (1:5 dilution) into fresh aliquots of cation adjusted BHI media and grown at 37° C. for 1-2 hours with shaking. After 2 h, cultures were diluted into fresh media to achieve final OD600 readings of 0.017. Aliquots of these diluted cultures (30 μL) were added to clear, flat-bottom, 384-well polystyrene plates that were stamped with 0.5 μL of test compounds in 20 μL media. […] Plates were sealed with “Breathe Easy” oxygen permeable membranes (Diversified Biotech) and left to incubate at 37° C. without shaking (stagnant assay). OD600 nm readings were taken at either 6-8 h (S. aureus, MRSA, K. pneumonia, E. cloacae, and P. aeruginosa) or 24 h (E. faecium and A. baumannii). A second set of baseline control plates were prepared analogously, but without any bacteria added, to correct for possible compound absorbance and/or precipitation. Plates were then read at 600 nm using a Molecular Devices SpectraMax Plus384 microplate reader. […] Results presented represent the averages of EC50 values obtained from at quadriplicate (duplicate of duplicate) replicates.

[2] = tested on: Drug sensitive Staphylococcus aureus (ATCC 25923); experiment: Bacterial proliferation assay, drug sensitive S. aureus; type: cell-based
Description: as §1, §2, §3

human HSP60/10 = target: T1, human HSP60/10 (Homo sapiens, UniProt P10809); experiment: HSP60/10-mediated dMDH refolding assay; type: biochemical; settings: human HSP60/10-dMDH refolding assay
T1 construct: octa-Histidine tag (TEV-cleavable) (N, cleaved yes); made in house; host or cells: HSP60 in E. coli Rosetta 2 (DE3); HSP10 in Rosetta 2 (DE3) pLysS
Description: Reagent preparation: For these assays, four primary reagent stocks were prepared: 1) GroEUES-dMDH or HSP60/10-dMDH binary complex stock; 2) ATP initiation stock; 3) EDTA quench stock; 4) MDH enzymatic assay stock. Denatured MDH (dMDH) was prepared by 2-fold dilution of MDH (5 mg/ml, soluble pig heart MDH from Roche, product #10127248001) with denaturant buffer (7 M guanidine-HCl, 200 mM Tris, pH 7.4, and 50 mM DTT). MDH was completely denatured by incubating at room temperature for 45 min. The binary complex solutions were prepared by slowly adding the dMDH stock to a stirring stock with GroEL (or HSP60) in folding buffer (50 mM Tris-HCl, pH 7.4, 50 mM KCl, 10 mM MgCl2, and 1 mM DTT), followed by addition of GroES (or HSP10). The binary complex stocks were prepared immediately prior to dispensing into the assay plates and had final protein concentrations of 83.3 nM GroEL (Mr 800 kDa) or HSP60 (Mr 400 kDa), 100 nM GroES or HSP10 (Mr 70 kDa), and 20 nM dMDH in folding buffer. For the ATP initiation stock, ATP solid was diluted into folding buffer to a final concentration of 2.5 mM. Quench solution contained 600 mM EDTA (pH 8.0). The MDH enzymatic assay stock consisted of 20 mM sodium mesoxalate and 2.4 mM NADH in reaction buffer (50 mM Tris-HCl, pH 7.4, 50 mM KCl, and 1 mM DTT).
Assay Protocol: First, 30 μL aliquots of the GroEL/ES-dMDH or HSP60/10-dMDH binary complex stocks were dispensed into clear, 384-well polystyrene plates. […] The chaperonin-mediated refolding cycles were initiated by addition of 20 μL of ATP stock (reagent concentrations during refolding cycle: 50 nM GroEL or HSP60, 60 nM GroES or HSP10, 12 nM dMDH, 1 mM ATP, and compounds of 100 μM to 46 nM, 3-fold dilution series). The refolding reactions were incubated at 37° C. […] Next, the assay was quenched by addition of 10 μL of the EDTA to final concentration of 100 mM. […] A340 nm measurements were recorded at 0.5 minutes (start point) and at successive time points until the amount of NADH consumed reached ˜90% (end point, generally between 20-35 minutes). The differences between the start and end point A340 values were used to calculate the % inhibition of the GroEL/ES or HSP60/10 machinery by the compounds. […] Results presented represent the averages of IC50 values obtained from at least quadriplicate (duplicate of duplicate) replicates.

[3] = ATCC13047, read-out: Bacterial Proliferation EC50 E. cloacae
[4] = ATCC13047, read-out: log(EC50) Bacterial Proliferation Assay E. cloacae (converted)
[5] = ATCC25923, read-out: Bacterial Proliferation EC50 S. aureus Sensitive
[6] = ATCC25923, read-out: log(EC50) Bacterial Proliferation Assay S. aureus Sensitive (converted)
[7] = read-out: HSP60/10-dMDH Refolding IC50
[8] = log(IC50) ± standard deviation, read-out: HSP60/10-dMDH Refolding Assay log(IC50) (converted)
[9] = ATCC13047, OD600 at 6-8 h, read-out: Bacterial Proliferation EC50 E. cloacae
[10] = ATCC13047, log of EC50 (μM scale), with standard deviation, read-out: log(EC50) Bacterial Proliferation Assay E. cloacae (converted)
[11] = ATCC25923, OD600 at 6-8 h, read-out: Bacterial Proliferation EC50 S. aureus Sensitive
[12] = ATCC25923, log of EC50 (μM scale), with standard deviation, read-out: log(EC50) Bacterial Proliferation Assay S. aureus Sensitive (converted)

T1 sequence (P10809 27-573): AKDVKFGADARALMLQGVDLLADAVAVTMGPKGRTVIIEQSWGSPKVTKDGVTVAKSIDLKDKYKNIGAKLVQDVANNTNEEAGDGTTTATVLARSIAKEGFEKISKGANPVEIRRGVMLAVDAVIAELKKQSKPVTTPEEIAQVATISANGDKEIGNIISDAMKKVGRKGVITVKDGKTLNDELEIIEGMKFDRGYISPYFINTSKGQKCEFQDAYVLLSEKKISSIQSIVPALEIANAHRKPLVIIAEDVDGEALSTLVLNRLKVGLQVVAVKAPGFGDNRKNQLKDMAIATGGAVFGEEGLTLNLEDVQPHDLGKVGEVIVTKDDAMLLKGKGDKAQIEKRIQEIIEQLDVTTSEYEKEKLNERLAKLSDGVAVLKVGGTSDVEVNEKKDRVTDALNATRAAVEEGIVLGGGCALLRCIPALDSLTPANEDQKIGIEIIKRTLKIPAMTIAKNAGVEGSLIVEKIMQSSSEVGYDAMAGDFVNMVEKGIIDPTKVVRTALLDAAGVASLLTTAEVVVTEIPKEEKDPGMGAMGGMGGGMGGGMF

| Compound | EC50 [1, 3] [µM] | EC50 [1, 4] [µM] | EC50 [2, 5] [µM] | EC50 ([2]; ATCC25923, read-out: S. aureus Proliferation & Biofilm Assay EC50 Planktonic Growth) [µM] | EC50 [2, 6] [µM] | IC50 (human HSP60/10; [7]) [µM] | IC50 (human HSP60/10; [8]) [µM] | EC50 [1, 9] [µM] | EC50 [1, 10] [µM] | EC50 [2, 11] [µM] | EC50 [2, 12] [µM] |
| --- | --- | --- | --- | --- | --- | --- | --- | --- | --- | --- | --- |
| O=C(Nc1ccc(Sc2nc3ccccc3s2)cc1)c1cc(Br)cc(Br)c1O [Compound 5, N-(4-(Benzo[d]thiazol-2-ylthio)phenyl)-3,5-dibromo-2-hydroxybenzamide] | > 100 | > 100 | 0.44 | 0.44 | 0.437 | 4.7 | 4.68 | – | – | – | – |
| O=C(Nc1ccc(Sc2nc3ccccc3s2)cc1)c1cccc(Br)c1 [Compound 21, N-(4-(Benzo[d]thiazol-2-ylthio)phenyl)-3-bromobenzamide] | – | – | – | – | – | > 100 | > 100 | > 100 | > 100 | > 100 | > 100 |
| O=C(Nc1ccc(Sc2nc3ccccc3s2)cc1)c1ccccc1O [Compound 8, N-(4-(Benzo[d]thiazol-2-ylthio)phenyl)-2-hydroxybenzamide] | – | – | – | – | – | > 100 | > 100 | > 100 | > 100 | 0.2 | 0.204 |
| O=C(Nc1ccc(Sc2nc3ccccc3s2)c(Cl)c1)c1ccccc1 [Compound 19, N-(4-(Benzo[d]thiazol-2-ylthio)-3-chlorophenyl)benzamide] | – | – | – | – | – | > 100 | > 100 | > 100 | > 100 | 43 | 42.7 |
| O=C(Nc1cccc(Cl)c1)c1cccc(Br)c1O [Compound 10, 3-Bromo-N-(3-chlorophenyl)-2-hydroxybenzamide] | – | – | – | – | – | > 100 | > 100 | > 100 | > 100 | 1.3 | 1.32 |
| O=C(Nc1ccc(Sc2nc3ccccc3s2)c(Cl)c1)c1ccccc1O [Compound 4, N-(4-(Benzo[d]thiazol-2-ylthio)-3-chlorophenyl)-2-hydroxybenzamide] | – | – | – | – | – | > 100 | > 100 | > 100 | > 100 | 0.31 | 0.309 |
| O=C(Nc1cccc(Cl)c1)c1ccccc1O [Compound 12, N-(3-Chlorophenyl)-2-hydroxybenzamide] | – | – | – | – | – | > 100 | > 100 | > 100 | > 100 | 3.1 | 3.09 |
| O=C(Nc1ccc(Sc2nc3ccccc3s2)cc1)c1cccc(Br)c1O [Compound 6, N-(4-(Benzo[d]thiazol-2-ylthio)phenyl)-3-bromo-2-hydroxybenzamide] | > 100 | > 100 | 0.76 | – | 0.759 | 26 | 25.7 | – | – | – | – |
